Common to all, as to format: cell-based
Experiment [1] deals with T1, human NaV1.8 (Homo sapiens, UniProt Q9Y5Y9). As to the kind of experiment: Human NaV1.8 cell line SyncroPatch384PE automated patch clamp assay. Also on record: expressed in transfected cells; host or cells: HEK cells, stably transfected. The settings on record: resting state block (P1 measurement), recombinant human NaV1.8 cells. The procedure: Compound Profiling on NaV1.8—Human NaV1.8 Cell Line—SyncroPatch384PE Assay
Compounds were tested on recombinant human NaV1.8 stably transfected HELK cells using the SyncroPatch384PE system, an automated patch clamp device. Cells were cultured at 37° C./5% CO2 in DMEM medium supplemented with GlutaMAX I, NEAA 1%, FBS 10% and seeded in T175 flasks. Cells were cultured at 30° C. one day prior to recording sodium currents. On the day of the recordings, cells were detached with 0.05% Trypsin-EDTA, resuspended in serum free DMEM medium and placed into the SyncroPatch384PE 6° C. pre-cooled cell hotel and shaken at 200 rpm. Intracellular solution (IC) contained, in mM: 10, CsCl; 110, CsF; 20, EGTA; 10, HEPES. Extracellular solution (EC) contained, in mM: 140, NaCl; 4, KCl; 5, Glucose; 10, HEPES; 2, CaCl2; 1, MgCl2. Washing solution contained, in mM: 40, NMDG; 100, NaCl; 4, KCl; 10, Glucose; 10, HEPES; 5, CaCl2; 1, MgCl2.
Compounds were tested in quadruplicates in 0.1% DMSO and 0.030% Pluronic Acid. Compounds were diluted 1:3.33 in EC solution to create a 10-point concentration response curve, spanning a final concentration range from 10-0.0002 μM in the assay plate. Compounds with low nM potency were retested using a lower concentration range (1-0.00002 μM). Each plate contained tetracaine and another tool compound as positive controls. Up to 7 compounds were tested on one plate. 150 μM tetracaine and 0.1% DMSO were used as high and low controls, respectively.
Whole cell patch clamp recordings were conducted according to Nanion's standard procedure for SyncroPatch384PE®. Cells were held at a holding potential of −120 mV. A depolarization step to 10 mV for 30 ms was applied (P1 measurement), followed by a hyperpolarization step to −100 mV for 100 ms. An inactivation step at −40 mV for 10 sec was applied before stepping to −100 mV for 20 ms, followed by a step to 10 mV for 30 ms (P2 measurement) and then back to −100 mV for 30 ms. Sweep interval was 15 sec with a sampling rate of 10 kHz. Following establishment of the whole-cell configuration in EC, two washing steps with reference buffer were performed to stabilize the baseline. Compounds were then applied by the SynchroPatch into each well and the current was recorded for five minutes in EC, followed by application of tetracaine to achieve full block at the end of the experiment. The potency of the compounds was assessed on two read-outs, resting state block (P1 measurement) or inactivated state block (P2 measurement) to obtain IC50 values. Values were normalized to high (tetracaine) and low (DMSO) controls.

The target of experiment [2] is T2, recombinant human NaV1.8 stably transfected HEK cells (Homo sapiens, UniProt Q9Y5Y9).
T2 construct: expressed in transfected cells; host or cells: HEK cells, stably transfected
As to the kind of experiment: Compound profiling on NaV1.8, human NaV1.8 cell line, SyncroPatch384PE automated patch clamp assay (Example 115, third set of compounds, Table 27). The settings on record: human NaV1.8 HEK cells, Table 27 (third set of compounds). A digest of the protocol: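 HEK cells, cultured at 30 °C the day before, recorded by automated whole-cell patch clamp (CsF intracellular, 140 mM Na+ external), holding −120 mV. 10-point curves at 10–0.0002 µM (or 1–0.00002 µM), 5 min exposure; IC50 for resting (P1) and inactivated-state block (P2, after 10 s at −40 mV), normalized to 150 µM tetracaine and 0.1% DMSO.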
Background: Patch clamp records ionic current or voltage across a cell membrane.

Experiment [3] addresses T1, human NaV1.8. As to the kind of experiment: Activity of representative NaV1.8 inhibitors, determined using one or more of the methods of Example 122 (method not specified). Also on record: expressed in transfected cells; host or cells: HEK293 / HEK-293, stably expressing. The settings on record: inhibition of the Nav1.8 channel; one or more of fluorescence, PatchXpress or IonFlux HT methods. The method, then:
The ability of pyridazine carboxamide derivatives exemplified above to inhibit the NaV1.8 channel was determined using one or more of the methods described below.
A HEK293 cell line stably expressing the human NaV1.8 (hNaV1.8) ion channel with β1/β2 subunits was constructed. The cell line is suitable for IC50 determination in fluorescence and electrophysiological based assays. It is also suitable to form mechanism of action pharmacology studies in electrophysiological assays. HEK293 NaV1.8 cells are grown as adherent monolayers in DMEM/high glucose media, 10% fetal bovine serum, Na pyruvate (2 mM), Hepes (10 mM) with selection agents G418 (400 mg/L) and puromycin (0.5 mg/L) at 37 degrees C., 10% CO2.
Activity of Representative NaV1.8 Inhibitors
The ability of representative pyridazine carboxamide derivatives exemplified above to inhibit the Nav1.8 channel was determined using one or more of the methods described immediately hereinabove.

Setting [4] is: inactivated state block (P2 measurement), read-out: P2 IC50.
Setting [5] is: resting state block (P1 measurement), read-out: P1 IC50.

Like-named read-outs stand apart in the source and are kept apart here.

T1 sequence (Q9Y5Y9 whole entry): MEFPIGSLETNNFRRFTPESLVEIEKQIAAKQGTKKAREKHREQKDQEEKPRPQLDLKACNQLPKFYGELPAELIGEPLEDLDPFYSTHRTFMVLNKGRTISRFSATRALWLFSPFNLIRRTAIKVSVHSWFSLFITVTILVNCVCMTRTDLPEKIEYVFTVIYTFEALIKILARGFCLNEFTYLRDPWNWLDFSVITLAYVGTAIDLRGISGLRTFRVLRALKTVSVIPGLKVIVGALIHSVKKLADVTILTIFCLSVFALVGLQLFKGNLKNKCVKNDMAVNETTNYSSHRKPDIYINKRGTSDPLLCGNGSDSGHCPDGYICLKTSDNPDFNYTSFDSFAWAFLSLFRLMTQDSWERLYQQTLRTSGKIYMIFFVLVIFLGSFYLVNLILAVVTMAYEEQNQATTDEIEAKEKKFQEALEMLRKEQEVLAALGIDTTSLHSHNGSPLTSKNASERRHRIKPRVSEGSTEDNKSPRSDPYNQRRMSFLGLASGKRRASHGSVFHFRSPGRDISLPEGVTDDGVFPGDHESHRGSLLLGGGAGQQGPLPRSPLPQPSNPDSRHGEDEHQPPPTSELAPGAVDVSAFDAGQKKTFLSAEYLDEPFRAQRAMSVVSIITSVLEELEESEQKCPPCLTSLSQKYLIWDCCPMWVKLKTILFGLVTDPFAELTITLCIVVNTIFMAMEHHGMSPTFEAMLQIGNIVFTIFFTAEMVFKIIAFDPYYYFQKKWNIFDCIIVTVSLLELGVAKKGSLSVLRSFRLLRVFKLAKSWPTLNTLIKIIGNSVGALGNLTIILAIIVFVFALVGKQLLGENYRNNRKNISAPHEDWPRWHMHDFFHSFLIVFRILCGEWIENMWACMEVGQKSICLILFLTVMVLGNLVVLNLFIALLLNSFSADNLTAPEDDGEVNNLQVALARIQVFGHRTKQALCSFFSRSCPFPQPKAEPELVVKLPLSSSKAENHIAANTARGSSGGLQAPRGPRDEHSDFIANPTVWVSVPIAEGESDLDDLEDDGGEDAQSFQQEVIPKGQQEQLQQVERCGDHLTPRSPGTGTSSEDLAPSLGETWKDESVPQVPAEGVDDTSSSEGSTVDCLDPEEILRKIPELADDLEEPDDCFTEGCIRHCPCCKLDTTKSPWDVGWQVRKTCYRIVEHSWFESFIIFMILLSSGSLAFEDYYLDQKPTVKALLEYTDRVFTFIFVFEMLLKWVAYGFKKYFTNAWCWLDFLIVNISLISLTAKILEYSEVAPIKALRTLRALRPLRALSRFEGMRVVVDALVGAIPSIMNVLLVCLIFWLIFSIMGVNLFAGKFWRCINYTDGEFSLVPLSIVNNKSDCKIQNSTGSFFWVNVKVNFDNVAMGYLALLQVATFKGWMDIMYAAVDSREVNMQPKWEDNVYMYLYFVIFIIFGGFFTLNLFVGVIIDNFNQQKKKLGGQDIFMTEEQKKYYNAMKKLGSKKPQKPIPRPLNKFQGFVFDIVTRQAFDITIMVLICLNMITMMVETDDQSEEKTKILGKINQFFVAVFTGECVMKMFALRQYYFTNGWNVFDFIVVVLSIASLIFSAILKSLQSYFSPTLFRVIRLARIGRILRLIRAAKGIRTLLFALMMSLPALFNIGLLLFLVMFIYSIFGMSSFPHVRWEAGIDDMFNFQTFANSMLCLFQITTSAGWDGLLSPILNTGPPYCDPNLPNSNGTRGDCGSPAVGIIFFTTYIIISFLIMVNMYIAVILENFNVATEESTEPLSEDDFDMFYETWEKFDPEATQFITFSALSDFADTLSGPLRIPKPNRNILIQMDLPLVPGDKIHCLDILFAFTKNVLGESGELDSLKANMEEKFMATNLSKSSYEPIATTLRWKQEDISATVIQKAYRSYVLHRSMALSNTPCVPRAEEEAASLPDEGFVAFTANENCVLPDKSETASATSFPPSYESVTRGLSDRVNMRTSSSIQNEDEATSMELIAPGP
T2 sequence (Q9Y5Y9 whole entry): as above

As to `Cc1cc(F)ccc1Oc1nnc(C(F)(F)F)cc1C(=O)NC1CCCNC1=O` (centres unmarked) [Compound 10], the IC50 (in general, the midpoint of a concentration-inhibition curve) on human NaV1.8 [1] is more than 5 µM.

On to `CC(=O)N1CCC[C@@H](NC(=O)c2cc(C(F)(F)F)nnc2Oc2ccc(F)cc2C)C1` [Compound 4], for which the half-maximal inhibitory concentration (IC50) on human NaV1.8 [1] was more than 5 µM.

Take `COc1cc(F)ccc1Oc1nnc(C(F)(F)F)cc1C(=O)N[C@H]1CCCN(S(C)(=O)=O)C1` [Compound 7, (S)-3-(4-Fluoro-2-methoxyphenoxy)-N-(1-(methylsulfonyl)piperidin-3-yl)-6-(trifluoromethyl)pyridazine-4-carboxamide]: the 50% inhibitory concentration (IC50) in experiment [2] (setting [4]) is 0.501 to 1 µM; in experiment [2] (setting [5]) it was 1 to 5 µM; on human NaV1.8 [1], more than 5 µM.

As to `Cc1cc(F)ccc1Oc1nnc(C(F)(F)F)cc1C(=O)NC1CCC(=O)NC1` (centres unmarked) [Compound 11], on human NaV1.8 [1], the IC50 was more than 5 µM.

As to `COc1cc(F)ccc1Oc1nnc(C(F)(F)F)cc1C(=O)N[C@H]1CCCN(C(=O)OC(C)(C)C)C1` [Compound 5, tert-Butyl (S)-3-(3-(4-fluoro-2-methoxyphenoxy)-6-(trifluoromethyl)pyridazine-4-carboxamido)piperidine-1-carboxylate], the half-inhibitory concentration (IC50) on human NaV1.8 [1] was more than 5 µM.

`COc1cc(F)ccc1Oc1nnc(C(F)(F)F)cc1C(=O)N[C@H]1CCCN(C(C)=O)C1` [Compound 8]: at human NaV1.8 [1], the IC50 was more than 5 µM.

Take `COc1cc(F)ccc1Oc1nnc(C(F)(F)F)cc1C(=O)Nc1cccc(S(C)(=N)=O)c1` (centres unmarked) [Example 1, 3-(4-fluoro-2-methoxy-phenoxy)-N-[3-(methylsulfonimidoyl)phenyl]-6-(trifluoromethyl)pyridazine-4-carboxamide]: the IC50 on human NaV1.8 [3] was less than 500 nM.

On to `COc1cc(F)ccc1Oc1nnc(C(F)(F)F)cc1C(=O)N[C@H]1CCCNC1` [Compound 6, (S)-3-(4-Fluoro-2-methoxyphenoxy)-N-(piperidin-3-yl)-6-(trifluoromethyl)pyridazine-4-carboxamide], for which the concentration for half-maximal inhibition (IC50) at human NaV1.8 [1] was more than 5 µM.

At human NaV1.8 [3], `Cc1cc(F)ccc1Oc1nnc(C(F)(F)F)cc1C(=O)Nc1cccc(S(C)(=N)=O)c1` (centres unmarked) [Example 2, 3-(4-fluoro-2-methyl-phenoxy)-N-[3-(methylsulfonimidoyl)phenyl]-6-(trifluoromethyl)pyridazine-4-carboxamide] displayed an IC50 of less than 500 nM.

In the case of `COc1cc(F)ccc1Oc1nnc(C(F)(F)F)cc1C(=O)NC1CCCNC1=O` (centres unmarked) [Compound 9], on human NaV1.8 [1], the IC50 was more than 5 µM.

Consider `COc1cc(F)ccc1Oc1nnc(C(F)(F)F)cc1C(=O)NC1CCC(=O)NC1` (centres unmarked) [Compound 12], for which the IC50 on human NaV1.8 [1] is more than 5 µM.

In the case of `CS(=O)(=O)c1cccc(NC(=O)c2cc(C(F)(F)F)nnc2Oc2cc(OC(F)(F)F)ccc2F)c1` [Compound 44], the IC50 lay in the range of 0.501 to 1 µM in experiment [2] (setting [4]) and 0.201 to 0.5 µM in experiment [2] (setting [5]).

Consider `COc1cc(F)ccc1Oc1nnc(C)cc1C(=O)Nc1cccc(S(C)(=O)=O)c1` [Compound 104], for which the concentration for half-maximal inhibition (IC50) in experiment [2] (setting [4]) and in experiment [2] (setting [5]) was more than 5 µM throughout.

For the compound `COc1cc(NC(=O)c2cc(C(F)(F)F)nnc2Oc2ccc(F)cc2Cl)ccn1` [Compound 67], the IC50 in experiment [2] (setting [4]) and in experiment [2] (setting [5]) was more than 5 µM throughout.

In the case of `CS(=O)(=O)c1cccc(NC(=O)c2cc(Cl)nnc2Oc2ccc(OC(F)(F)F)cc2)c1` [Example 3, 6-chloro-N-(3-methylsulfonylphenyl)-3-[4-(trifluoromethoxy)phenoxy]pyridazine-4-carboxamide], at human NaV1.8 [3], the IC50 is less than 500 nM.

As to `Cc1cc(C2CC2)ccc1Oc1nnc(C(F)(F)F)cc1C(=O)Nc1cccc(S(C)(=O)=O)c1` [Compound 87], the 50% inhibitory concentration (IC50) in experiment [2] (setting [4]) and in experiment [2] (setting [5]) was not above 0.2 µM in each case.

Take `Cc1cc(F)ccc1Oc1nnc(C(F)(F)F)cc1C(=O)Nc1cccc(-n2cnnc2)c1` [Compound 12]: the IC50 in experiment [2] (setting [4]) and in experiment [2] (setting [5]) was 1 to 5 µM throughout.

Turning to `CSc1cccc(NC(=O)c2cc(C(F)(F)F)nnc2Oc2cc(F)ccc2Cl)c1` [Compound 111], the half-maximal inhibitory concentration (IC50) in experiment [2] (setting [4]) and in experiment [2] (setting [5]) was more than 5 µM in each case.

Turning to `COc1cc(F)ccc1Oc1nnc(C(F)(F)F)cc1C(=O)Nc1cc(C#N)cnn1` [Compound 56], the IC50 in experiment [2] (setting [4]) and in experiment [2] (setting [5]) was more than 5 µM each time.

`Cc1cc(F)ccc1Oc1nnc(C(F)(F)F)cc1C(=O)Nc1ccc(S(C)(=N)=O)cc1` (centres unmarked) [Compound 98, 3-(4-Fluoro-2-methylphenoxy)-N-(4-(S-methylsulfonimidoyl)phenyl)-6-(trifluoromethyl)pyridazine-4-carboxamide]: the IC50 in experiment [2] (setting [4]) and in experiment [2] (setting [5]) was more than 5 µM each time.

`COc1cc(F)ccc1Oc1nnc(C(F)(F)F)cc1C(=O)Nc1cnnc(C#N)c1` [Compound 55]: the half-inhibitory concentration (IC50) in experiment [2] (setting [4]) and in experiment [2] (setting [5]) was 1 to 5 µM each time.

Consider `CSc1cccc(NC(=O)c2cc(C(F)(F)F)nnc2Oc2ccc(C#N)cc2C)c1` [Compound 110], for which the half-maximal inhibitory concentration (IC50) in experiment [2] (setting [4]) and in experiment [2] (setting [5]) was more than 5 µM throughout.

In the case of `COc1cc(NC(=O)c2cc(C(F)(F)F)nnc2Oc2ccc(F)cc2C)c(C)cn1` [Compound 29], the IC50 in experiment [2] (setting [4]) and in experiment [2] (setting [5]) was more than 5 µM in each case.

With `Cc1cc(OC(F)(F)F)ccc1Oc1nnc(C(F)(F)F)cc1C(=O)Nc1ccc(C(N)=O)cc1` [Compound 37], the 50% inhibitory concentration (IC50) in experiment [2] (setting [4]) and in experiment [2] (setting [5]) was not above 0.2 µM each time.

The values are drawn from US20240336574A1 (LATIGO BIOTHERAPEUTICS, INC., priority 2021, published 2024).
